Laboratory results reported in ChEMBL document CHEMBL1135380, “Synthesis and structure-activity relationship of 2-(aminoalkyl)-2,3,3a,8-tetrahydrodibenzo[c,f]isoxazolo[2,3-a]azepine derivatives: a novel series of 5-HT(2A/2C) receptor antagonists. Part 1” (Bioorg Med Chem Lett, 2002).

How the values were obtained:
[1] = molecular target: T1, 5-hydroxytryptamine receptor 2C (Rattus norvegicus) (UniProt P08909); test: In vivo activity in rat mCPP challenge test following p.o. administration.; type: functional, organism-based
T1 sequence (whole entry): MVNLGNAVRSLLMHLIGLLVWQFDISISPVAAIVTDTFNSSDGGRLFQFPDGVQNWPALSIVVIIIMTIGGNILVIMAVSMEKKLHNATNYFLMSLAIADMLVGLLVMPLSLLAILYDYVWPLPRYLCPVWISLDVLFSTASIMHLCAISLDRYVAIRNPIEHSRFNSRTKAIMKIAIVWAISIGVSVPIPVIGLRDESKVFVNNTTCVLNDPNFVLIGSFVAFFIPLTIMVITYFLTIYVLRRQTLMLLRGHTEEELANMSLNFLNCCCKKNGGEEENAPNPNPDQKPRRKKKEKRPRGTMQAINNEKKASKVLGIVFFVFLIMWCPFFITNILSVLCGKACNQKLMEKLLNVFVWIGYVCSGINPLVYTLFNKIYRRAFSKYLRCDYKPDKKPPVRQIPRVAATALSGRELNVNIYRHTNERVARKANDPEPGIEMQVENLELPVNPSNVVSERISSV

[2] = molecular target: 5-hydroxytryptamine receptor 2A (Homo sapiens, UniProt P28223); test: biochemical; type: cell-based, L929
Chain of 5-hydroxytryptamine receptor 2A (P28223 whole entry): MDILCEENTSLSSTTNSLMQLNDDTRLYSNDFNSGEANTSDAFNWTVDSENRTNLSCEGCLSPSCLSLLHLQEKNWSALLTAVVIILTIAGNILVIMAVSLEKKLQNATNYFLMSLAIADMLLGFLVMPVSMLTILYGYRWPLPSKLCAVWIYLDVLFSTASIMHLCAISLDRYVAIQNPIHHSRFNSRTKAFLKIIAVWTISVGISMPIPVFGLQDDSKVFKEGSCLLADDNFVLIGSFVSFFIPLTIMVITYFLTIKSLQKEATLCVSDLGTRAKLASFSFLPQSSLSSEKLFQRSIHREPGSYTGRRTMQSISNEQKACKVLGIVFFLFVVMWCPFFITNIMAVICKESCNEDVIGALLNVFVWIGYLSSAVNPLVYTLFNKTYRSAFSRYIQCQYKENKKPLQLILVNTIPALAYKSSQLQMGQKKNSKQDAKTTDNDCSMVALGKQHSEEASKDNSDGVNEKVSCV
Description: Binding affinity for human cloned 5-hydroxytryptamine 2A receptor expressed in L929 cells using [125I]R91150 as radioligand

Histamine H1 receptor = Histamine H1 receptor (Homo sapiens, UniProt P35367); test: Binding affinity for human cloned Histamine H1 receptor expressed in CHO cells using [3H]pyrilamine as radioligand; type: cell-based
Chain of Histamine H1 receptor (P35367 whole entry): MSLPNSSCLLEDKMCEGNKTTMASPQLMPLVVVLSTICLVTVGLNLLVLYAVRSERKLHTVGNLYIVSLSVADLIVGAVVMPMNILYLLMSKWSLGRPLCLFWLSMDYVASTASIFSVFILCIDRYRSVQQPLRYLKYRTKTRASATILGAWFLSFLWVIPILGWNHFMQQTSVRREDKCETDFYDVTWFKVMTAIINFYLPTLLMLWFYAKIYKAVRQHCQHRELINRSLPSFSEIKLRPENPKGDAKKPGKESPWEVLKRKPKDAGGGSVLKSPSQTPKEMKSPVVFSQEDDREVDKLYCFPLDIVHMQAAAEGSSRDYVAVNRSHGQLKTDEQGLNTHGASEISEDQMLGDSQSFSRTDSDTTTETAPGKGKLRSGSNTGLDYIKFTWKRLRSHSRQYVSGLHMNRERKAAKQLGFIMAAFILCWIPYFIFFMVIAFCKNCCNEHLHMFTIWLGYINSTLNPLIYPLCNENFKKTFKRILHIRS

[3] = molecular target: T2, 5-hydroxytryptamine receptor 2C (Homo sapiens, UniProt P28335); test: Binding affinity for human cloned 5-hydroxytryptamine 2C receptor expressed in CHO cells using [3H]mesulergine as radioligand; type: cell-based
T2 sequence (P28335 whole entry): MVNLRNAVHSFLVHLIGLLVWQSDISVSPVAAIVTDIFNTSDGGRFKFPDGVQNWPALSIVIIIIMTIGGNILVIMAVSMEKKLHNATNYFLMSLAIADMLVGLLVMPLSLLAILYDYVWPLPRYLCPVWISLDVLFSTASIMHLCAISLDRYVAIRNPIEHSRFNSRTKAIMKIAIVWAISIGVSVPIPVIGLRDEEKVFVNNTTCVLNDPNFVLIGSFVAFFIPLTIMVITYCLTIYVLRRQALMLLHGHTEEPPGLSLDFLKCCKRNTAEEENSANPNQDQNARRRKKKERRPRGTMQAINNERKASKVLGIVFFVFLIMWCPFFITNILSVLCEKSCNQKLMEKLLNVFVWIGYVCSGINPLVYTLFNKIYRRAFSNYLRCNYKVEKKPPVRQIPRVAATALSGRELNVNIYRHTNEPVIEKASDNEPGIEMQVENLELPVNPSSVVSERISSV

Rattus norvegicus = test: In vivo activity in mCPP challenge test were performed in male Wistar rats by subcutaneous administration; type: functional
[4] = molecular target: 5-hydroxytryptamine receptor 1D (Homo sapiens, UniProt P28221); test: Binding affinity for human cloned 5-hydroxytryptamine 1D receptor
Chain of 5-hydroxytryptamine receptor 1D (P28221 whole entry): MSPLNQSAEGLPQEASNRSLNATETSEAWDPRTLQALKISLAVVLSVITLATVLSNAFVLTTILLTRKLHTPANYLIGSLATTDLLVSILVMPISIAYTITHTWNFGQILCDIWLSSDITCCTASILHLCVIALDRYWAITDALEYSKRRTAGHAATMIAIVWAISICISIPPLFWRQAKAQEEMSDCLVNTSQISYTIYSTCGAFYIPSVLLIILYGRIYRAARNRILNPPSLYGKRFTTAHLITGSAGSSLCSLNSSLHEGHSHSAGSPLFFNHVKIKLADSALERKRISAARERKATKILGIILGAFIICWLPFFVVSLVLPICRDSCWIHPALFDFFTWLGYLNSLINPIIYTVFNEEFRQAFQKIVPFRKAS

[5] = molecular target: T3, Alpha-2C adrenergic receptor (Homo sapiens, UniProt P18825); test: Binding affinity for human cloned Alpha-2C adrenergic receptor
T3 sequence (P18825 whole entry): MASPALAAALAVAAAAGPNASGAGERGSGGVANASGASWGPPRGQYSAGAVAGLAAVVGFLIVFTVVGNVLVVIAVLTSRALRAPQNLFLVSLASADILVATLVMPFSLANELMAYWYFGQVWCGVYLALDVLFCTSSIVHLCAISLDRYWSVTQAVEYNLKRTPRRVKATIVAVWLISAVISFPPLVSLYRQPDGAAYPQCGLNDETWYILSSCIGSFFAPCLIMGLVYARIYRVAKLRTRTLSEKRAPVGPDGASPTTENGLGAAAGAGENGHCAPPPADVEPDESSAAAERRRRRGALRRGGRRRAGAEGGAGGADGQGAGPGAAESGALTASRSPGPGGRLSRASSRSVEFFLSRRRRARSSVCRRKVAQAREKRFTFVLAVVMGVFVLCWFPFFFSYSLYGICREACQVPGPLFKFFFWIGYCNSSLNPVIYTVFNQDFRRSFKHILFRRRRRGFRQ

D(3) dopamine receptor = D(3) dopamine receptor (Homo sapiens, UniProt P35462); test: Binding affinity for human cloned Dopamine receptor D3
Chain of D(3) dopamine receptor (P35462 whole entry): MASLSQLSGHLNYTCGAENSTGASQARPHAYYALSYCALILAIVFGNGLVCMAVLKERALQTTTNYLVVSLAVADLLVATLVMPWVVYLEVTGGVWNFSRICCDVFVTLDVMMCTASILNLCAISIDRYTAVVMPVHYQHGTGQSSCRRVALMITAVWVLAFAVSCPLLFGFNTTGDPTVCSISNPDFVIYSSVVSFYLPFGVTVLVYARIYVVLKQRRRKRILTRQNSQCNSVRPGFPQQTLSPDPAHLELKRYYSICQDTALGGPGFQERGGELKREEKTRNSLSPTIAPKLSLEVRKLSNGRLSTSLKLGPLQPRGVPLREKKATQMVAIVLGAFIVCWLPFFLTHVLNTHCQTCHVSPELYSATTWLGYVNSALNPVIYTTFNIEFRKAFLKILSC

[6] = molecular target: T4, Alpha-2A adrenergic receptor (Homo sapiens, UniProt P08913); test: Binding affinity for human cloned Alpha-2A adrenergic receptor
T4 sequence (P08913 whole entry): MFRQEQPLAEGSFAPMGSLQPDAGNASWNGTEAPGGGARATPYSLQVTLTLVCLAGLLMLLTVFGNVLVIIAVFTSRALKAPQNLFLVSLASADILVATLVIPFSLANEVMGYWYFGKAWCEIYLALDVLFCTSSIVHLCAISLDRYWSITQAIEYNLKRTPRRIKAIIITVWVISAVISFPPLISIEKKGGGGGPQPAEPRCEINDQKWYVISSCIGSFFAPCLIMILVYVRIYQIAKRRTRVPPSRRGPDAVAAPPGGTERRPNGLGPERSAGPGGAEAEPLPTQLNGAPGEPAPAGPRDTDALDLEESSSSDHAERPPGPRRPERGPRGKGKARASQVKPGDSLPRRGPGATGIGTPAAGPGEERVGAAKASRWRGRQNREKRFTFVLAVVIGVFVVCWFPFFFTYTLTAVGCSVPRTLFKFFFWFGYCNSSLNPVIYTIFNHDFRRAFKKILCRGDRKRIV

[7] = molecular target: T5, Alpha-1A adrenergic receptor (Homo sapiens, UniProt P35348); test: Binding affinity for human cloned Alpha-1A adrenergic receptor
T5 sequence (P35348 whole entry): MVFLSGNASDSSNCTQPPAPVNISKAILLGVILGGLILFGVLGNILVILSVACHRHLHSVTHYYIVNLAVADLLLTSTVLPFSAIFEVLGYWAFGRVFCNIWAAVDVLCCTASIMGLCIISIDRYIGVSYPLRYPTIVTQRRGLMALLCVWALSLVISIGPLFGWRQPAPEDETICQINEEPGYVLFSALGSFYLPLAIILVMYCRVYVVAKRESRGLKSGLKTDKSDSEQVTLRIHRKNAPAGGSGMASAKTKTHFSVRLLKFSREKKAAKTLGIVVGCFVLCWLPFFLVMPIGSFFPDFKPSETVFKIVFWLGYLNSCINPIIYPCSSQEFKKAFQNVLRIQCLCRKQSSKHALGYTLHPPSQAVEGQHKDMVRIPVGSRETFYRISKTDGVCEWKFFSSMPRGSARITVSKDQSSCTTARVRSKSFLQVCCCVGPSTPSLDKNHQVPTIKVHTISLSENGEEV

[8] = molecular target: Serotonin 3 (5-HT3) receptor; test: Binding affinity for human cloned 5-hydroxytryptamine 3 receptor; type: protein-complex assay
D(4) dopamine receptor = molecular target: T6, D(4) dopamine receptor (Homo sapiens, UniProt P21917); test: Binding affinity for human cloned Dopamine receptor D4
T6 sequence (P21917 whole entry): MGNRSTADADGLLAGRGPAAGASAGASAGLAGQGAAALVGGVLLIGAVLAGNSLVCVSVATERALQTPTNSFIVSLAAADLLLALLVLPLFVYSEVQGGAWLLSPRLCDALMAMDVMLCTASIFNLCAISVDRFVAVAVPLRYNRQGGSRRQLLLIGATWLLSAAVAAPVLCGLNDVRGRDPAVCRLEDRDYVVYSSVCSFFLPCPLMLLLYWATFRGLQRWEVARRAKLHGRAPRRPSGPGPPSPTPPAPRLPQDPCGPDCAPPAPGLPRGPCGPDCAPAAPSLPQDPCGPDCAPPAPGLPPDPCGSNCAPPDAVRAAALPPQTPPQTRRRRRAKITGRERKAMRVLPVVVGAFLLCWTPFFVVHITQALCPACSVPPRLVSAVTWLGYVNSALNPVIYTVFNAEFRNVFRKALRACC

D(2) dopamine receptor [9] = molecular target: D(2) dopamine receptor (Rattus norvegicus, UniProt P61169); test: Binding affinity for rat Dopamine receptor D2
Chain of D(2) dopamine receptor (Rattus norvegicus, UniProt P61169) (P61169 whole entry): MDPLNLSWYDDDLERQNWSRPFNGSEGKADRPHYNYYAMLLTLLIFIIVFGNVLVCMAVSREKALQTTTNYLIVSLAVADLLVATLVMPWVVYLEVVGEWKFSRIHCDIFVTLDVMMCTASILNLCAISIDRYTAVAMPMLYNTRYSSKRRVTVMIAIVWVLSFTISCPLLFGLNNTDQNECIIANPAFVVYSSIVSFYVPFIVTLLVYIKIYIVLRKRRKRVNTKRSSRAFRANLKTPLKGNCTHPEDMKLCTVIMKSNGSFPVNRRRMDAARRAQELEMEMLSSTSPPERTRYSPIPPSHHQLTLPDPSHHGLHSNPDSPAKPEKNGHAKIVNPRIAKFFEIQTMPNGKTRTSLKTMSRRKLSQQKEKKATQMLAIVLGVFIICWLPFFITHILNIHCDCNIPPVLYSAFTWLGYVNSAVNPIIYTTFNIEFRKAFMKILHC

D(2) dopamine receptor [10] = molecular target: D(2) dopamine receptor (Homo sapiens, UniProt P14416); test: Binding affinity for human cloned Dopamine receptor D2L
Chain of D(2) dopamine receptor (Homo sapiens, UniProt P14416) (P14416 whole entry): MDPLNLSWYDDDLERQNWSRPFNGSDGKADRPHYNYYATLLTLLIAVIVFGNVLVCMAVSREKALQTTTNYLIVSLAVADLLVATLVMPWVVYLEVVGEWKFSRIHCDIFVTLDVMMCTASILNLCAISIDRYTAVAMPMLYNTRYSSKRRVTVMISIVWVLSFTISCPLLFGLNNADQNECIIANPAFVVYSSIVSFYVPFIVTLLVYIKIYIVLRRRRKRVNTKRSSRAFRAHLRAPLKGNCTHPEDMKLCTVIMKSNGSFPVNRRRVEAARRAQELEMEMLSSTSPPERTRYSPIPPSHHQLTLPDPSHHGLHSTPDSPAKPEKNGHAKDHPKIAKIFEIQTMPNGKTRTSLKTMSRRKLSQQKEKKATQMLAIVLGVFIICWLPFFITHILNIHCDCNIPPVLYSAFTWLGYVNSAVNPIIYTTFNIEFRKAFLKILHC

[11] = molecular target: T7, 5-hydroxytryptamine receptor 1A (Homo sapiens, UniProt P08908); test: Binding affinity for human cloned 5-hydroxytryptamine 1A receptor
T7 sequence (P08908 whole entry): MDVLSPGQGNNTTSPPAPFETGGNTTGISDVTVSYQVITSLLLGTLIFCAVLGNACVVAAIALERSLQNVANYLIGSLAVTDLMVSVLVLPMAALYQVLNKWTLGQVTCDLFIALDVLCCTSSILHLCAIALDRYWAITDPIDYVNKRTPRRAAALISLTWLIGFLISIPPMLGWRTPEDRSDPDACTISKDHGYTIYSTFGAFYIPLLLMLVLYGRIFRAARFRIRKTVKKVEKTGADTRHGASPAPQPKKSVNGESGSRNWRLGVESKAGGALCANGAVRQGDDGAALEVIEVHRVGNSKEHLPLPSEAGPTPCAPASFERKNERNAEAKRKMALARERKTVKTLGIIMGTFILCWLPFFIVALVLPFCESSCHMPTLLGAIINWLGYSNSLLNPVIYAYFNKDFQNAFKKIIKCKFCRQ

[12] = Rattus norvegicus, sc, read-out: ED50

ED50 [1] | IC50 [2] | IC50 (Histamine H1 receptor) | IC50 [3] | Structure (SMILES) | ED50 (Rattus norvegicus; [12]) | other results
> 2.5 mg/kg | 0.0158 µM | 0.2 µM | 0.00562 µM | NCC1CC2c3ccccc3Cc3ccccc3N2O1 (stereo not drawn) |  | 
 | > 1 µM | > 1 µM | > 1 µM | CN(C)CC1CC2c3ccccc3Cc3ccccc3N2O1 (trans isomer) |  | ED50 (Rattus norvegicus): >2.5 mg/kg
2.5 mg/kg | 0.0427 µM | 0.0135 µM | 0.0145 µM | CCN(CC)CC1CC2c3ccccc3Cc3ccccc3N2O1 (stereo not drawn) |  | 
> 2.5 mg/kg | 0.00389 µM | 0.676 µM | 0.0186 µM | CN(C)CCCC1CC2c3ccccc3Cc3ccccc3N2O1 (stereo not drawn) |  | 
 | > 1 µM | 0.0617 µM | 0.933 µM | CN(C)CC1(C)CC2c3ccccc3Cc3ccccc3N2O1 (stereo in doubt; trans) | > 2.5 mg/kg | 
 | 0.0575 µM | 0.00166 µM | 0.0138 µM | CN(C)CC1(C)CC2c3ccccc3Cc3ccccc3N2O1 (stereo in doubt; cis) |  | 
> 2.5 mg/kg | 0.0251 µM | 0.00302 µM | 0.0162 µM | c1ccc2c(c1)Cc1ccccc1N1OC(CN3CCCC3)CC21 (stereo not drawn) | > 2.5 mg/kg | 
 | 0.0229 µM | 0.00676 µM | 0.0123 µM | CN(C)CC1CC2c3ccccc3Cc3ccccc3N2O1 (stereo in doubt; 2a) |  | IC50 [4]: 0.661 µM; IC50 [5]: 1.86 µM; IC50 (D(3) dopamine receptor): 0.17 µM; ED50 (Rattus norvegicus): 0.04 mg/kg; IC50 [6]: 0.372 µM; IC50 [7]: 0.537 µM; pIC50 [8]: 5.92; IC50 (D(4) dopamine receptor): 0.132 µM; IC50 (D(2) dopamine receptor [9]): 0.195 µM; IC50 (D(2) dopamine receptor [10]): 0.871 µM; IC50 [11]: 0.977 µM
> 2.5 mg/kg | 0.00191 µM | 0.102 µM | 0.0038 µM | CN(C)CC1CC2c3ccccc3Oc3ccc(Cl)cc3N2O1 (stereo not drawn) | > 2.5 mg/kg | 
 | 0.141 µM | 0.0263 µM | > 1 µM | c1ccc2c(c1)Cc1ccccc1N1OC(CN3CCOCC3)CC21 (stereo not drawn) | 2.5 mg/kg | 

Structure (SMILES) | ED50 [1] | IC50 [2] | IC50 (Histamine H1 receptor) | IC50 [3] | ED50 (Rattus norvegicus; [12]) | other results
O=C1c2ccccc2C(=O)N1CC1CC2c3ccccc3Cc3ccccc3N2O1 (stereo not drawn) | > 2.5 mg/kg | > 1 µM | > 1 µM | > 1 µM |  | 
c1ccc(N2CCN(CC3CC4c5ccccc5Cc5ccccc5N4O3)CC2)cc1 (stereo not drawn) |  | > 1 µM | > 1 µM | > 1 µM |  | 
